According to the supplement of paper PMC4862054:
Values joined by “and” are separate entries in the source; they are usually repeats but may differ in a detail not shown here. Equal values may be shown once.

Columns and labels:
Details in all cases: incubation time: 72 h
DU-4475 [1] = assay: normalised viability (% of control), CellTiter-Blue; higher = more viable cells (about 100 = DMSO control)
Experimental: (§1)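 DSRT, CellTiter-Blue viability, 72 h incubation. Signal is normalised to DMSO and benzethonium chloride controls. Value is the normalised response at dose 9.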

CAL-51 [2] = assay: as above
Experimental: as §1

CAL-148 [3] = assay: as above
Experimental: as §1

HDQ-P1 [4] = assay: as above
Experimental: as §1

CAL-85-1 [5] = assay: as above
Experimental: as §1

DU-4475 [6] = assay: as above; remark: listed apart in the source
Experimental: (§2)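 DSRT, CellTiter-Blue viability, 72 h incubation. Signal is normalised to DMSO and benzethonium chloride controls. Value is the normalised response at dose 6.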

MDA-MB-453 [7] = assay: as above
Experimental: as §2

CAL-51 [8] = assay: as above; remark: listed apart in the source
Experimental: as §2

CAL-148 [9] = assay: as above; remark: listed apart in the source
Experimental: as §2

HDQ-P1 [10] = assay: as above; remark: listed apart in the source
Experimental: as §2

CAL-85-1 [11] = assay: as above; remark: listed apart in the source
Experimental: as §2

CAL-120 = assay: normalised viability (% of control), CellTiter-Blue; higher = more viable cells (about 100 = DMSO control)
Summary of the method: (§3)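 Normalised viability is given for a single listed concentration of the series. In 384-well plates, breast cancer cell lines were incubated 72 h with compound, then read with CellTiter-Blue (2 h, 37 °C) at 560/590 nm. Per-plate scaling set vehicle to 100 and a positive kill control to 0, with Z'-factor quality control.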

DU-4475 [12] = assay: as above; remark: listed apart in the source
Summary of the method: as §3

HCC1937 = assay: as above
Summary of the method: as §3

MDA-MB-453 [13] = assay: as above; remark: listed apart in the source
Summary of the method: as §3

BT-549 = assay: as above
Summary of the method: as §3

SK-BR-3 = assay: as above
Summary of the method: as §3

HCC1599 = assay: as above
Summary of the method: as §3

MFM-223 [14] = assay: as above
Summary of the method: as §3

CAL-51 [15] = assay: as above; remark: listed apart in the source
Summary of the method: as §3

MDA-MB-231 = assay: as above
Summary of the method: as §3

CAL-148 [16] = assay: as above; remark: listed apart in the source
Summary of the method: as §3

Hs578T = assay: as above
Summary of the method: as §3

BT-474 = assay: as above
Summary of the method: as §3

HDQ-P1 [17] = assay: as above; remark: listed apart in the source
Summary of the method: as §3

MDA-MB-468 = assay: as above
Summary of the method: as §3

MDA-MB-436 = assay: as above
Summary of the method: as §3

CAL-85-1 [18] = assay: as above; remark: listed apart in the source
Summary of the method: as §3

MFM-223 [19] = assay: normalised viability (% of control), CellTiter-Blue; higher = more viable cells (100 = DMSO, 0 = benzethonium chloride kill control)
Experimental: (§4)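 DSRT, CellTiter-Blue viability, 72 h incubation. Signal is normalised to DMSO and benzethonium chloride controls. Value is the normalised response at dose 1.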

CAL-51 [20] = assay: as above
Experimental: as §4

CAL-148 [21] = assay: as above
Experimental: as §4

HCC1143 = assay: normalised viability (% of control), CellTiter-Blue; higher = more viable cells (about 100 = DMSO control)
Summary of the method: as §3

CO[C@H]1C[C@@H]2CC[C@@H](C)[C@@](O)(O2)C(=O)C(=O)N2CCCC[C@H]2C(=O)O[C@H]([C@H](C)C[C@@H]2CC[C@@H](OCCO)[C@H](OC)C2)CC(=O)[C@H](C)/C=C(\C)[C@@H](O)[C@@H](OC)C(=O)[C@H](C)C[C@H](C)/C=C/C=C/C=C/1C [Everolimus]
normalised viability (DU-4475 [1]; 1000 nM): 61.8% and 39.1% | normalised viability (CAL-51 [2]; 1000 nM): 37% and 28.9% | normalised viability (CAL-148 [3]; 1000 nM): 38% and 16.3% | normalised viability (HDQ-P1 [4]; 1000 nM): 76.8% and 59.4% | normalised viability (CAL-85-1 [5]; 1000 nM): 62% and 43% | normalised viability (DU-4475 [6]; 30 nM): 50.6% and 60.2% | normalised viability (MDA-MB-453 [7]; 30 nM): 30.5% and 29.2% | normalised viability (CAL-51 [8]; 30 nM): 39.1% and 41.5% | normalised viability (CAL-148 [9]; 30 nM): 42.9% and 41.6% | normalised viability (HDQ-P1 [10]; 30 nM): 38.7% and 49% | normalised viability (CAL-85-1 [11]; 30 nM): 61.6% and 56.1% | normalised viability (CAL-120; 1000 nM): 53.2% and 38.1% | normalised viability (DU-4475 [12]; 10 nM): 64.3% and 57.3% | normalised viability (HCC1937; 1000 nM): 45.8% and 46.6% | normalised viability (MDA-MB-453 [13]; 10 nM): 32.7% and 28.1% | normalised viability (BT-549; 1000 nM): 56.4% and 46.6% | normalised viability (SK-BR-3; 1000 nM): 55.1% and 36.7% | normalised viability (HCC1599; 1000 nM): 86.7% and 68.9% | normalised viability (MFM-223 [14]; 1000 nM): 51.6% and 26.8% | normalised viability (CAL-51 [15]; 10 nM): 39.8% and 39.5% | normalised viability (MDA-MB-231; 1000 nM): 73.9% and 77.5% | normalised viability (CAL-148 [16]; 10 nM): 44.4% and 37.9% | normalised viability (Hs578T; 1000 nM): 53.2% and 41.5% | normalised viability (BT-474; 1000 nM): 65% and 59.1% | normalised viability (HDQ-P1 [17]; 10 nM): 79.4% and 60.5% | normalised viability (MDA-MB-468; 1000 nM): 56.8% and 64.2% | normalised viability (MDA-MB-436; 1000 nM): 93.8% and 71.5% | normalised viability (CAL-85-1 [18]; 10 nM): 68.8% and 61.3% | normalised viability (MFM-223 [19]; 0.1 nM): 85% and 84% | normalised viability (CAL-51 [20]; 0.1 nM): 99.3% and 104% | normalised viability (CAL-148 [21]; 0.1 nM): 93.9% and 95.7%

CCCCCCCCc1ccc(CCC(N)(CO)CO)cc1 [Fingolimod]
normalised viability (DU-4475 [1]; 10000 nM): 136% | normalised viability (CAL-51 [2]; 10000 nM): 91.8% | normalised viability (CAL-148 [3]; 10000 nM): 62.2% | normalised viability (HDQ-P1 [4]; 10000 nM): 0.67% | normalised viability (CAL-85-1 [5]; 10000 nM): 4.87% | normalised viability (DU-4475 [6]; 300 nM): 99.3% | normalised viability (MDA-MB-453 [7]; 300 nM): 107% | normalised viability (CAL-51 [8]; 300 nM): 113% | normalised viability (CAL-148 [9]; 300 nM): 93.7% | normalised viability (HDQ-P1 [10]; 300 nM): 87.4% | normalised viability (CAL-85-1 [11]; 300 nM): 93.1% | normalised viability (CAL-120; 10000 nM): 2.23% | normalised viability (DU-4475 [12]; 100 nM): 107% | normalised viability (HCC1937; 10000 nM): 2.06% | normalised viability (MDA-MB-453 [13]; 100 nM): 97.7% | normalised viability (BT-549; 10000 nM): 8.23% | normalised viability (SK-BR-3; 10000 nM): 3.17% | normalised viability (HCC1599; 10000 nM): 128% | normalised viability (MFM-223 [14]; 10000 nM): 9.42% | normalised viability (CAL-51 [15]; 100 nM): 111% | normalised viability (MDA-MB-231; 10000 nM): 0.68% | normalised viability (HCC1143; 10000 nM): 69.5% | normalised viability (CAL-148 [16]; 100 nM): 87% | normalised viability (Hs578T; 10000 nM): 2.92% | normalised viability (BT-474; 10000 nM): 2.28% | normalised viability (HDQ-P1 [17]; 100 nM): 111% | normalised viability (MDA-MB-468; 10000 nM): 0.62% | normalised viability (MDA-MB-436; 10000 nM): 4.17% | normalised viability (CAL-85-1 [18]; 100 nM): 96.6% | normalised viability (MFM-223 [19]; 1 nM): 94% | normalised viability (CAL-51 [20]; 1 nM): 117% | normalised viability (CAL-148 [21]; 1 nM): 96.8%

Cc1cc2c(C(C)C)c(O)c(O)c(C=O)c2c(O)c1-c1c(C)cc2c(C(C)C)c(O)c(O)c(C=O)c2c1O [Gossypol]
normalised viability (DU-4475 [1]; 100000 nM): 4.97% | normalised viability (CAL-51 [2]; 100000 nM): 2.71% | normalised viability (CAL-148 [3]; 100000 nM): 3.73% | normalised viability (HDQ-P1 [4]; 100000 nM): 4.15% | normalised viability (CAL-85-1 [5]; 100000 nM): 3.4% | normalised viability (DU-4475 [6]; 3000 nM): 49.2% | normalised viability (MDA-MB-453 [7]; 3000 nM): 62.9% | normalised viability (CAL-51 [8]; 3000 nM): 96.6% | normalised viability (CAL-148 [9]; 3000 nM): 114% | normalised viability (HDQ-P1 [10]; 3000 nM): 105% | normalised viability (CAL-85-1 [11]; 3000 nM): 80.2% | normalised viability (CAL-120; 100000 nM): 3.6% | normalised viability (DU-4475 [12]; 1000 nM): 113% | normalised viability (HCC1937; 100000 nM): 6.06% | normalised viability (MDA-MB-453 [13]; 1000 nM): 105% | normalised viability (BT-549; 100000 nM): 2.19% | normalised viability (SK-BR-3; 100000 nM): 1.49% | normalised viability (HCC1599; 100000 nM): 4.74% | normalised viability (MFM-223 [14]; 100000 nM): 4.14% | normalised viability (CAL-51 [15]; 1000 nM): 92.1% | normalised viability (MDA-MB-231; 100000 nM): 5.74% | normalised viability (HCC1143; 100000 nM): 15.7% | normalised viability (CAL-148 [16]; 1000 nM): 107% | normalised viability (Hs578T; 100000 nM): 1.54% | normalised viability (BT-474; 100000 nM): 20.4% | normalised viability (HDQ-P1 [17]; 1000 nM): 128% | normalised viability (MDA-MB-468; 100000 nM): 2.31% | normalised viability (MDA-MB-436; 100000 nM): 1.2% | normalised viability (CAL-85-1 [18]; 1000 nM): 87.7%
